Common to all, as to assay type: cell-based
Assay [1] has as its system MDA-MB-231 cells. In words: MDA-MB-231 cell proliferation assay (Cell-Titer-Glo, 120 hr). The note with it: for EC50: Homo sapiens, MDA-MB-231, 120 h, read-out: MDA-MB 231 Cell Prolif. 120 hr EC50; for MDA-MB 231 Cell Prolif. 120 hr YMin (%): minimal percent of DMSO control observed. An excerpt: (§1) MKN45 cells were obtained from Celgene internal cell banks and cultured in RPMI complete media (RPMI-1640, 1× Penicillin/Streptomycin, 1× glutamine, 1× Sodium Pyruvate, Non-essential Amino Acids, 10% Fetal Bovine serum, all component from Thermo-Fisher). MDA-MB-231 cells were obtained from the ATCC (HTB-26) and cultured in RPMI-1640 and 10% Fetal Bovine serum; MDA-MB-231 cells were expanded and stored as aliquots in liquid nitrogen in Celgene internal cell banks. Compounds were dispensed into 384-well plates using an HP DE300 compound printer in triplicate with 8 compounds on each plate. Compounds were dispensed into 384-well black clear bottom plates (Corning #3764BC) using an EDC acoustic dispenser at BMS. For each compound, a 10-point dose response was printed at half-log dilutions starting at either 1 uM or 10 uM in triplicate for MKN45 cells and in duplicate for MDA-MB-231 cells. The DMSO concentration was kept constant for a final assay concentration of 0.1% per well assuming 50 ul final media volume. Compound plates were sealed and frozen at −20 C until use.
(§2) For each assay batch, compound plates were thawed and allowed to reach room temperature, and cells were seeded at 400 MKN45 cells per well, or 800 MDA-MB-231 cells per well, in 50 ul media listed above for each cell line. After 120 hours of incubation at 37 C and 5% CO2, cells were lysed by addition of 25 μL of Cell-Titer-Glo Reagent (Promega Corporation, Madison, WI), as per manufacturer's instructions, protected from light, shaken for 45 minutes, and total luminescence read by a Perkin Elmer Envision plate reader. Total luminescence signal is linearly correlated with cell number remaining in the well.
(§3) Luminescence data was processed per plate by subtracting reagent-only “blank” well luminescence from all measured values and calculating a percent of DMSO control value for each treatment well. Then, to determine the half-maximal effective concentration (EC50) values for cell growth inhibition, a four parameter logistic model was fit to the data for each DMSO-normalized compound: Sigmoidal Dose-Response Model: (FIT=(A+((B−A)/1+((C/x)^D)))) where C is the inflection point ([…]), D is the Hill slope, and A and B are the low and high limits of the fit respectively. The lower limit of the fit (value A) is referred to as Ymin-calculated. The minimal percent of DMSO control that is observed in the concentrations tested for each compound is labeled as “Ymin-obs”, and was recorded and reported in the tables. Sigmoidal fit curves were processed and evaluated using Activity Base (IDBS, Alameda, CA) or using Dotmatics (Boston, MA). N/A=not available at the present time.

The target of assay [2] is T1, WEE1 (Homo sapiens, UniProt P30291+Q96SW2).
T1 construct: C-terminal ePL-tagged (DiscoverX, Fremont, CA) full-length WEE1 expression construct; expressed in transfected cells; host or cells: LentiX-HEK293T (Invitrogen), lentivirally transduced; the cells also over-express GSPT1-GN
In words: WEE1-ePL degradation assay (293T-LentiX, InCELL Hunter luminescence, 4 hr). The note with it: for DC50: LentiX-HEK293T cells expressing WEE1-ePL, 4 hr incubation, read-out: 293T-LentiX WEE1-ePL Degradation 4 hr EC50; for 293T-LentiX WEE1-ePL Degradation 4 hr YMin (%): lower limit of fit, % of DMSO control signal remaining. The text has this:
To generate LentiX-WEE1-ePL-GSPT1-ND cells for the WEE1 degradation assay, LentiX-HEK293T (Invitrogen) were tranduced by lentivirus with a C-terminal ePL-tagged (DiscoverX, Fremont, CA) full-length WEE1 expression construct. A separate lentiviral construct was introduced to over-express a mutated form of GSPT1 (NP_002085), termed GSPT1-GN, which contains a G575N mutation and is further truncated in the first 158 amino acids. GSPT1-GN is functional but not degradable by Cereblon. Cells were selected and maintained in complete DMEM media (DMEM, 10% Heat Inactivated FBS, 400 μg/mL Geneticin, and 1 μg/mL puromycin at 37 C and 5% CO2). Cells were passaged every 3-4 days by reseeding 1×10^6 cells in a T150 flask.
Cells were dispensed into 384-well white plates (Corning #3570, NY) that were pre-spotted with compounds using an acoustic dispenser (Echo acoustic transfer system, Beckman Coulter Life Sciences, Carlsbad, CA) as a 10-point dose-response curve with a 3-fold dilution starting at either 1 uM or 10 uM and including a DMSO control. Twenty-five microliters of media containing 2500 cells for LentiX-oeWEE1-ePL was dispensed per well. Assay plates were incubated at 37° C. with 5% CO2 for four hours (WEE1) After incubation, 25 μL of the InCELL Hunter™ Detection Reagent Working Solution (DiscoverX, Fremont, CA) was added to each well and incubated at room temperature for 30 minutes protected from light. After 30 minutes, luminescence was read on a PHERAstar luminometer (Cary, NC).
To determine the half-maximal effective concentration (EC50) values for WEE1-ePL degradation, a four parameter logistic model was used: (Sigmoidal Dose-Response Model) (FIT=(A+((B−A)/1+((C/x)^D)))) where C is the inflection point (EC50), D is the Hill slope, and A and B are the low and high limits of the fit respectively). The lower limit of the fit (value A) is referred to as Ymin. […] The maximum limit constraint, Ymax, is similarly derived using DMSO control. The curves were processed and evaluated using Activity Base (IDBS, Alameda, CA) or using Dotmatics (Boston, MA).

Assay [3] deals with MKN45 cells. In words: MKN45 cell proliferation assay (Cell-Titer-Glo, 120 hr). The note with it: for EC50: Homo sapiens, MKN-45, 120 h, read-out: MKN45 Cell Prolif. 120 hr EC50; for MKN45 Cell Prolif. 120 hr YMin (%): minimal percent of DMSO control observed.
From the text: as §1, §2, §3

T1 sequence (P30291 whole entry): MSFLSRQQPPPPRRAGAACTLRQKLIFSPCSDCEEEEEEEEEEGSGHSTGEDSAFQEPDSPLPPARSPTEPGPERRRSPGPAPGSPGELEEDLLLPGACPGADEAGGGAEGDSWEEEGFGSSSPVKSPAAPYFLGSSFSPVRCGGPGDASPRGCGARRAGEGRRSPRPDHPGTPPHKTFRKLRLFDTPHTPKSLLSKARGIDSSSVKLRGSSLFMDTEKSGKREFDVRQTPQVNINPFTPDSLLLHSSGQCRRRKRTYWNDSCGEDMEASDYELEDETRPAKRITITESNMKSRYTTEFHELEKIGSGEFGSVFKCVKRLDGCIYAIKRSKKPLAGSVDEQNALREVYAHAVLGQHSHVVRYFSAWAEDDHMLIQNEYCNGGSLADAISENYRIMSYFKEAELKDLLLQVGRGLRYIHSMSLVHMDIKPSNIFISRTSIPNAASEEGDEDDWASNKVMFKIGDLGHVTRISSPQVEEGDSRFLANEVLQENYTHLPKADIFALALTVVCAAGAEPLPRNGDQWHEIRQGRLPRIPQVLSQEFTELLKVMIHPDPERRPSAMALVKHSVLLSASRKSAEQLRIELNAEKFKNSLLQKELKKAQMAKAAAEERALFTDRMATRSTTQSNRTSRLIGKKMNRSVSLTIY
T1 sequence (Q96SW2 whole entry): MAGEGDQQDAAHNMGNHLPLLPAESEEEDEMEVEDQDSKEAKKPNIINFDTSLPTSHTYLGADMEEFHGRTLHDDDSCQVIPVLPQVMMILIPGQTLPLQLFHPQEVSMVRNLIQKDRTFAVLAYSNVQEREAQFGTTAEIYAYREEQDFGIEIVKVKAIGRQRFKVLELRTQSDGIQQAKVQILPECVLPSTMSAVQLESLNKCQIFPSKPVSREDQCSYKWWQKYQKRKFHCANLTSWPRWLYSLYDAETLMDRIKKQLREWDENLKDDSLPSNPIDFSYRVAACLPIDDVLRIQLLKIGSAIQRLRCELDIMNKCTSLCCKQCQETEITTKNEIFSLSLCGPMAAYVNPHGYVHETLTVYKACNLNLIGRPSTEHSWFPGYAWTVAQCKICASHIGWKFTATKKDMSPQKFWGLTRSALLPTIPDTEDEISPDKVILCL
T1 sequence (Q16531 whole entry partner): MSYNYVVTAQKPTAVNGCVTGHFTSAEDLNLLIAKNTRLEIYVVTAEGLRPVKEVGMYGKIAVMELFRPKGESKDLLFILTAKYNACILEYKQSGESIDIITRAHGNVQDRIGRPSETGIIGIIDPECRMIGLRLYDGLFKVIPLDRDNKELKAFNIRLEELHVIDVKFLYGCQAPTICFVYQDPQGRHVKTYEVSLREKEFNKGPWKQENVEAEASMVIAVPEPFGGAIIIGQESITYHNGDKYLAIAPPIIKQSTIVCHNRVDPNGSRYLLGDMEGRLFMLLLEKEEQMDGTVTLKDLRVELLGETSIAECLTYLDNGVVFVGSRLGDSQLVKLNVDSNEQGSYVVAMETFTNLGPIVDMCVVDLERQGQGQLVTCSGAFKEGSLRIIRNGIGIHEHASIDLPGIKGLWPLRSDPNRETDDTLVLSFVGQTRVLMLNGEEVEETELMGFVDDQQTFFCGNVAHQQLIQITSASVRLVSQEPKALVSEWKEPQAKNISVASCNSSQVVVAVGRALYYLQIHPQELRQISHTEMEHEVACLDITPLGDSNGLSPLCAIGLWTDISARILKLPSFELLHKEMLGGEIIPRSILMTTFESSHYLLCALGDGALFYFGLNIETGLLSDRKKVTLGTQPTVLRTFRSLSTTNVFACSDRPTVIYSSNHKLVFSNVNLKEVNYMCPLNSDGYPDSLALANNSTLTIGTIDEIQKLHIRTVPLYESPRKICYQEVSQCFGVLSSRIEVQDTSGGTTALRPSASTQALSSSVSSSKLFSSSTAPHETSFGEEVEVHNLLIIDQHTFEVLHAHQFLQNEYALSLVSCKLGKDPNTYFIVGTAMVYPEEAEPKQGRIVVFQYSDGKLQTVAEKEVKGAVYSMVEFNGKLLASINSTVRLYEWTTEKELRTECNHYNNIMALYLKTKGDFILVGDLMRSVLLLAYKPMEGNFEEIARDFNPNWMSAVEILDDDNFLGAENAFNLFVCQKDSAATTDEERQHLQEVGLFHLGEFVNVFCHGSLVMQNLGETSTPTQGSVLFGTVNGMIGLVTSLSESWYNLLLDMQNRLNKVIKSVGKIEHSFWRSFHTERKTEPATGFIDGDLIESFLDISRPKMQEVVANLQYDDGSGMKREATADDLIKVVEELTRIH

As for `O=C1CC[C@H](N2Cc3cc(O[C@H]4CCN(Cc5ccc6nc([C@H]7CCO[C@]8(CCOC8)C7)ccc6c5)C4)ccc3C2=O)C(=O)N1` (relative stereo) [Example 23, rel-(3S)-3-(5-(((3S)-1-((2-(2,6-dioxaspiro[4.5]decan-9-yl)quinolin-6-yl)methyl)pyrrolidin-3-yl)oxy)-1-oxoisoindolin-2-yl)piperidine-2,6-dione], in assay [1], the EC50 was 82 nM and the “MDA-MB 231 Cell Prolif. 120 hr YMin (%)” value worked out at 56.9%. In assay [2], the DC50 stood at 2 nM and the “293T-LentiX WEE1-ePL Degradation 4 hr YMin (%)” value was 33.5%. In assay [3], the half-maximal effective concentration (EC50) was found to be 6 nM and the “MKN45 Cell Prolif. 120 hr YMin (%)” value is on record as 11.8%.

For the compound `COC[C@@H]1CN(Cc2cc(F)c3nc(C4CCC(O)CC4)ncc3c2)C[C@H]1Oc1ccc2c(c1)CN([C@H]1CCC(=O)NC1=O)C2=O` (relative stereo) [Example 50, rel-(S)-3-(5-(((3S,4S)-1-((8-fluoro-2-(4-hydroxycyclohexyl)quinazolin-6-yl)methyl)-4-(methoxymethyl)pyrrolidin-3-yl)oxy)-1-oxoisoindolin-2-yl)piperidine-2,6-dione], in assay [1], the concentration for a half-maximal effect (EC50) is 17 nM and the “MDA-MB 231 Cell Prolif. 120 hr YMin (%)” value came out at 19.3%. In addition, in assay [2], the DC50 was found to be 3 nM and the “293T-LentiX WEE1-ePL Degradation 4 hr YMin (%)” value is 19.8%. Also, in assay [3], the EC50 came out at 7 nM and the “MKN45 Cell Prolif. 120 hr YMin (%)” value is on record as 8.7%.

As for `COC[C@@H]1CN(Cc2cc3ccc(C4CCC(O)CC4)cc3cn2)C[C@H]1Oc1ccc2c(c1)CN([C@H]1CCC(=O)NC1=O)C2=O` (relative stereo) [Example 51, rel-(S)-3-(5-(((3S,4S)-1-((7-(4-hydroxycyclohexyl)isoquinolin-3-yl)methyl)-4-(methoxymethyl)pyrrolidin-3-yl)oxy)-1-oxoisoindolin-2-yl)piperidine-2,6-dione], in assay [1], the concentration for a half-maximal effect (EC50) amounted to 15 nM and the “MDA-MB 231 Cell Prolif. 120 hr YMin (%)” value was 24.8%. Also, in assay [2], the DC50 stood at 1 nM and the “293T-LentiX WEE1-ePL Degradation 4 hr YMin (%)” value worked out at 29.0%. In assay [3], the half-maximal effective concentration (EC50) turned out to be 1 nM and the “MKN45 Cell Prolif. 120 hr YMin (%)” value is given as 9.9%.

For the compound `COC[C@@H]1CN(Cc2cc(F)c3nc(C4CC(C)OC(C)C4)ccc3c2)C[C@H]1Oc1ccc2c(c1)CN([C@H]1CCC(=O)NC1=O)C2=O` (relative stereo) [Example 52, re1-(3S)-3-(5-{[(3S,4S)-1-{[2-(2,6-dimethyloxan-4-yl)-8-fluoroquinolin-6-yl]methyl}-4-(methoxymethyl)pyrrolidin-3-yl]oxy}-1-oxo-2,3-dihydro-1H-isoindol-2-yl)piperidine-2,6-dione], in assay [1], the concentration for a half-maximal effect (EC50) worked out at 12 nM and the “MDA-MB 231 Cell Prolif. 120 hr YMin (%)” value worked out at 16.7%. In assay [2], the DC50 amounted to 1 nM and the “293T-LentiX WEE1-ePL Degradation 4 hr YMin (%)” value worked out at 27.2%. Further, in assay [3], the EC50 was 1 nM and the “MKN45 Cell Prolif. 120 hr YMin (%)” value is on record as 8.3%.

Turning to `COC[C@@H]1CN(Cc2cc(F)c3nc(C4CCC(O)CC4)ccc3c2)C[C@H]1Oc1ccc2c(c1)CN([C@H]1CCC(=O)NC1=O)C2=O` (relative stereo) [Example 54, rel-(S)-3-(5-(((3S,4S)-1-((8-fluoro-2-(4-hydroxycyclohexyl)quinolin-6-yl)methyl)-4-(methoxymethyl)pyrrolidin-3-yl)oxy)-1-oxoisoindolin-2-yl)piperidine-2,6-dione], in assay [1], the EC50 was 9 nM and the “MDA-MB 231 Cell Prolif. 120 hr YMin (%)” value is recorded as 48.9%. The “293T-LentiX WEE1-ePL Degradation 4 hr YMin (%)” value in assay [2] was 31.2%. Further, the “MKN45 Cell Prolif. 120 hr YMin (%)” value in assay [3] came to 10.5%.

With `COC[C@@H]1CN(Cc2cc(F)c3nc(C4CCC(C(C)(C)O)CC4)ccc3c2)C[C@H]1Oc1ccc2c(c1)CN([C@H]1CCC(=O)NC1=O)C2=O` (relative stereo) [Example 57, rel-(S)-3-(5-(((3S,4S)-1-((8-fluoro-2-(4-(2-hydroxypropan-2-yl)cyclohexyl)quinolin-6-yl)methyl)-4-(methoxymethyl)pyrrolidin-3-yl)oxy)-1-oxoisoindolin-2-yl)piperidine-2,6-dione], in assay [1], the concentration for a half-maximal effect (EC50) was 11 nM and the “MDA-MB 231 Cell Prolif. 120 hr YMin (%)” value is 13.2%. In addition, the “293T-LentiX WEE1-ePL Degradation 4 hr YMin (%)” value in assay [2] is listed as 30.3%. The “MKN45 Cell Prolif. 120 hr YMin (%)” value in assay [3] was determined as 8.0%.

Turning to `COC[C@@H]1CN(Cc2cc(F)c3nc(C4CCCO4)ccc3c2)C[C@H]1Oc1ccc2c(c1)CN(C1CCC(=O)NC1=O)C2=O` (relative stereo) [Example 65, rel-(3S)-3-(5-(((3S,4S)-1-((8-fluoro-2-(tetrahydrofuran-2-yl)quinolin-6-yl)methyl)-4-(methoxymethyl)pyrrolidin-3-yl)oxy)-1-oxoisoindolin-2-yl)piperidine-2,6-dione], in assay [1], the “MDA-MB 231 Cell Prolif. 120 hr YMin (%)” value was determined as 94.2%. Further, in assay [2], the DC50 was 1 nM and the “293T-LentiX WEE1-ePL Degradation 4 hr YMin (%)” value came out at 27.3%. Besides, in assay [3], the EC50 turned out to be 2 nM and the “MKN45 Cell Prolif. 120 hr YMin (%)” value is given as 8.1%.

Regarding `COC[C@@H]1CN(Cc2cc(F)c3nc(C4CCCN4C)ccc3c2)C[C@H]1Oc1ccc2c(c1)CN([C@H]1CCC(=O)NC1=O)C2=O` (relative stereo) [Example 66, rel-(3S)-3-(5-(((3S,4S)-1-((8-fluoro-2-(1-methylpyrrolidin-2-yl)quinolin-6-yl)methyl)-4-(methoxymethyl)pyrrolidin-3-yl)oxy)-1-oxoisoindolin-2-yl)piperidine-2,6-dione], in assay [1], the half-maximal effective concentration (EC50) stood at 107 nM and the “MDA-MB 231 Cell Prolif. 120 hr YMin (%)” value is on record as 57.1%. Further, in assay [2], the DC50 was found to be 3 nM and the “293T-LentiX WEE1-ePL Degradation 4 hr YMin (%)” value came to 32.7%. For the same compound, in assay [3], the EC50 stood at 5 nM and the “MKN45 Cell Prolif. 120 hr YMin (%)” value turned out to be 13.9%.

Regarding `COC[C@@H]1CN(Cc2cc(F)c3nc(C4CCN(C(C)=O)C4)ccc3c2)C[C@H]1Oc1ccc2c(c1)CN([C@H]1CCC(=O)NC1=O)C2=O` (relative stereo) [Example 67, rel-(3S)-3-(5-(((3S,4S)-1-((2-(1-acetylpyrrolidin-3-yl)-8-fluoroquinolin-6-yl)methyl)-4-(methoxymethyl)pyrrolidin-3-yl)oxy)-1-oxoisoindolin-2-yl)piperidine-2,6-dione], in assay [1], the 50% effective concentration (EC50) amounted to 28 nM and the “MDA-MB 231 Cell Prolif. 120 hr YMin (%)” value is on record as 37.7%. Besides, in assay [2], the DC50 came out at 1 nM and the “293T-LentiX WEE1-ePL Degradation 4 hr YMin (%)” value is given as 29.6%. In addition, in assay [3], the half-maximal effective concentration (EC50) was found to be 1 nM and the “MKN45 Cell Prolif. 120 hr YMin (%)” value is on record as 12.3%.
